The test is described as follows: Inhibition of PGHS-1 in human platelet rich plasma assessed as inhibition of arachidonic acid-induced platelet aggregation in human platelet rich plasma treated 5 min before arachidonic acid challenge by turbidimetry.

Each structure is given as a SMILES string.

With `COC(=O)CCCCc1cccc(C(=O)OC)c1OC(C)=O` [methyl 2-acetoxy-3-(5-methoxy-5-oxopentyl)benzoate], the IC50 was found to be 720 µM.

The values are drawn from BindingDB's records for doi:10.1016/j.bmcl.2009.05.120 (Royal College of Surgeons In Ireland, 2009).
